Target: T1, Human M4 (Homo sapiens, UniProt P08173)
T1 construct: expressed in transfected cells
T1 sequence (P08173 1-479): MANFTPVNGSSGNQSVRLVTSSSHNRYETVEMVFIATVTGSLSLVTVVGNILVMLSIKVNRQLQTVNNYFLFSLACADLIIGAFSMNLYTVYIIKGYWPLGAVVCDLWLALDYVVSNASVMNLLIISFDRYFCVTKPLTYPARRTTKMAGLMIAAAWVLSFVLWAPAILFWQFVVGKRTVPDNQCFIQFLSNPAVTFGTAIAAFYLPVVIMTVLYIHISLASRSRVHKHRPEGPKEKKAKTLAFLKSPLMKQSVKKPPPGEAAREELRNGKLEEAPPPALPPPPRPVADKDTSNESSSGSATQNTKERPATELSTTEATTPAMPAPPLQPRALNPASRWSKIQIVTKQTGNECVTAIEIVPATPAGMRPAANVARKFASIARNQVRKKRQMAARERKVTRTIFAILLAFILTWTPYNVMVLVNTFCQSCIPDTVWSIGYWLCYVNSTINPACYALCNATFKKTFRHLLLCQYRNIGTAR
Test: mAChR M4 cell-based functional assay (calcium flux, PAM mode)
Parameters: Emax: dose or concentration left out as unconfirmed
Conditions: for Emax at 30 µM: CHO-K1, % ACh maximum at 30 μM; for Emax at 30 µM / EC50: hM4-Gqi5 CHO-K1 cells; for EC50: concentration-dependent increase in the EC20 acetylcholine response
Method in brief: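 CHO-K1 cells stably co-expressing human M4 and chimeric Gqi5, Fluo-4 loaded; compound added first (11-point, 1:3 CRC), then EC20 acetylcholine at 144 s and EC80 at 230 s. PAM activity read on FDSS as concentration-dependent increase of EC20 ACh calcium response; EC50 and Emax from four-parameter logistic fit.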

| SMILES | Emax at 30 µM | EC50 | Emax (CHO-K1, read-out: Human M4 Emax (%)*) |
| --- | --- | --- | --- |
| [2H]C1(Oc2ccc3c(c2)OC([2H])([2H])C([2H])([2H])O3)CCN(c2nn3c(=O)cc(COC)nc3cc2C)CC1 [Compound 109, 7-(4-((2,3-dihydrobenzo[b][1,4]dioxin-6-yl-2,2,3,3-d4)oxy)piperidin-1-yl-4-d)-2-(methoxymethyl)-8-methyl-4H-pyrimido[1,2-b]pyridazin-4-one] | 97% | 0.019 µM |  |
| [2H]C1(Oc2ccc3c(c2)OC([2H])([2H])C([2H])([2H])O3)CCN(c2nn3c(=O)cc(COC)nc3c(C)c2C)CC1 [Compound 110, 7-(4-((2,3-dihydrobenzo[b][1,4]dioxin-6-yl-2,2,3,3-d4)oxy)piperidin-1-yl-4-d)-2-(methoxymethyl)-8,9-dimethyl-4H-pyrimido[1,2-b]pyridazin-4-one] | 80% | 0.044 µM |  |
| [2H]C1([2H])Oc2ccc(O[C@@H]3CCN(c4nn5c(=O)ccnc5cc4C)C[C@@H]3F)cc2OC1([2H])[2H] [Compound 111, 7-((3S,4R)-4-((2,3-dihydrobenzo[b][1,4]dioxin-6-yl-2,2,3,3-d4)oxy)-3-fluoropiperidin-1-yl)-8-methyl-4H-pyrimido[1,2-b]pyridazin-4-one] | 106% | 0.067 µM |  |
| [2H]C1([2H])Oc2ccc(O[C@H]3CCN(c4nn5c(=O)ccnc5cc4C)C[C@H]3F)cc2OC1([2H])[2H] [Compound 112, 7-((3R,4S)-4-((2,3-dihydrobenzo[b][1,4]dioxin-6-yl-2,2,3,3-d4)oxy)-3-fluoropiperidin-1-yl)-8-methyl-4H-pyrimido[1,2-b]pyridazin-4-one] | 108% | 0.075 µM |  |
| Cc1cc2nccc(=O)n2nc1N1CC[C@@H](Oc2ccc3c(c2)OCCO3)C[C@H]1C [Compound 116, 7-((2R,4R)-4-((2,3-dihydrobenzo[b][1,4]dioxin-6-yl)oxy)-2-methylpiperidin-1-yl)-8-methyl-4H-pyrimido[1,2-b]pyridazin-4-one] | 71% | 1.33 µM |  |
| [2H]C1([2H])Oc2ccc(O[C@H]3CCN(c4nn5c(=O)ccnc5c(C)c4C)C[C@@H]3F)cc2OC1([2H])[2H] [Compound 117, 7-((3S,4S)-4-((2,3-dihydrobenzo[b][1,4]dioxin-6-yl-2,2,3,3-d4)oxy)-3-fluoropiperidin-1-yl)-8,9-dimethyl-4H-pyrimido[1,2-b]pyridazin-4-one] | 93% | 0.326 µM |  |
| [2H]C1([2H])Oc2ccc(O[C@@H]3CCN(c4nn5c(=O)ccnc5c(C)c4C)C[C@@H]3F)cc2OC1([2H])[2H] [Compound 118, 7-((3S,4R)-4-((2,3-dihydrobenzo[b][1,4]dioxin-6-yl-2,2,3,3-d4)oxy)-3-fluoropiperidin-1-yl)-8,9-dimethyl-4H-pyrimido[1,2-b]pyridazin-4-one] | 115% | 0.034 µM |  |
| [2H]C1([2H])Oc2ccc(O[C@H]3CCN(c4nn5c(=O)ccnc5c(C)c4C)C[C@H]3F)cc2OC1([2H])[2H] [Compound 119, 7-((3R,4S)-4-((2,3-dihydrobenzo[b][1,4]dioxin-6-yl-2,2,3,3-d4)oxy)-3-fluoropiperidin-1-yl)-8,9-dimethyl-4H-pyrimido[1,2-b]pyridazin-4-one] | 114% | 0.051 µM |  |
| [2H]C1([2H])Oc2ccc(O[C@H]3CCN(c4nn5c(=O)cc(COC)nc5c(C)c4C)C[C@@H]3F)cc2OC1([2H])[2H] [Compound 120, 7-((3S,4S)-4-((2,3-dihydrobenzo[b][1,4]dioxin-6-yl-2,2,3,3-d4)oxy)-3-fluoropiperidin-1-yl)-2-(methoxymethyl)-8,9-dimethyl-4H-pyrimido[1,2-b]pyridazin-4-one] | 106% | 0.162 µM |  |
| [2H]C1([2H])Oc2ccc(O[C@@H]3CCN(c4nn5c(=O)cc(COC)nc5c(C)c4C)C[C@@H]3F)cc2OC1([2H])[2H] [Compound 121, 7-((3S,4R)-4-((2,3-dihydrobenzo[b][1,4]dioxin-6-yl-2,2,3,3-d4)oxy)-3-fluoropiperidin-1-yl)-2-(methoxymethyl)-8,9-dimethyl-4H-pyrimido[1,2-b]pyridazin-4-one] | 111% | 0.042 µM |  |
| [2H]C1([2H])Oc2ccc(O[C@H]3CCN(c4nn5c(=O)cc(COC)nc5c(C)c4C)C[C@H]3F)cc2OC1([2H])[2H] [Compound 122, 7-((3R,4S)-4-((2,3-dihydrobenzo[b][1,4]dioxin-6-yl-2,2,3,3-d4)oxy)-3-fluoropiperidin-1-yl)-2-(methoxymethyl)-8,9-dimethyl-4H-pyrimido[1,2-b]pyridazin-4-one] | 111% | 0.094 µM |  |
| CNc1c(C)c(N2CCC(Oc3ccc4c(c3)OCCO4)CC2)nn2c(=O)ccnc12 [Compound 123, 7-(4-((2,3-dihydrobenzo[b][1,4]dioxin-6-yl)oxy)piperidin-1-yl)-8-methyl-9-(methylamino)-4H-pyrimido[1,2-b]pyridazin-4-one] | 89% | 0.556 µM |  |
| [2H]C1([2H])Oc2ccc(O[C@@H]3CCN(c4nn5c(=O)cc(COC)nc5c(C)c4C)C[C@H]3F)cc2OC1([2H])[2H] [Compound 124, 7-((3R,4R)-4-((2,3-dihydrobenzo[b][1,4]dioxin-6-yl-2,2,3,3-d4)oxy)-3-fluoropiperidin-1-yl)-2-(methoxymethyl)-8,9-dimethyl-4H-pyrimido[1,2-b]pyridazin-4-one] | 109% | 0.101 µM |  |
| [2H]C1([2H])Oc2ccc(O[C@@H]3CCN(c4nn5c(=O)cc(COC)nc5cc4C)C[C@H]3F)cc2OC1([2H])[2H] [Compound 125, 7-((3R,4R)-4-((2,3-dihydrobenzo[b][1,4]dioxin-6-yl-2,2,3,3-d4)oxy)-3-fluoropiperidin-1-yl)-2-(methoxymethyl)-8-methyl-4H-pyrimido[1,2-b]pyridazin-4-one] | 108% | 0.087 µM |  |
| COc1c(C)c(N2CCC(Oc3ccc4c(c3)OCCO4)CC2)nn2c(=O)ccnc12 [Compound 126, 7-(4-((2,3-Dihydrobenzo[b][1,4]dioxin-6-yl)oxy)piperidin-1-yl)-9-methoxy-8-methyl-4H-pyrimido[1,2-b]pyridazin-4-one] | 109% | 0.421 µM |  |
| Cc1c(N2CCC(Oc3ccc4c(c3)OCCO4)CC2)nn2c(=O)ccnc2c1N1CCC1 [Compound 127, 9-(Azetidin-1-yl)-7-(4-((2,3-dihydrobenzo[b][1,4]dioxin-6-yl)oxy)piperidin-1-yl)-8-methyl-4H-pyrimido[1,2-b]pyridazin-4-one] |  | 1.6 µM | 58% |
| [2H]C1([2H])Oc2ccc(O[C@@H]3CCN(c4nn5c(=O)ccnc5c(C)c4C)C[C@H]3F)cc2OC1([2H])[2H] [Compound 128, 7-((3R,4R)-4-((2,3-dihydrobenzo[b][1,4]dioxin-6-yl-2,2,3,3-d4)oxy)-3-fluoropiperidin-1-yl)-8,9-dimethyl-4H-pyrimido[1,2-b]pyridazin-4-one] | 125% | 0.053 µM |  |
| [2H]C1([2H])Oc2ccc(O[C@H]3CCN(c4nn5c(=O)ccnc5cc4C)[C@H](C)C3)cc2OC1([2H])[2H] [Compound 129, 7-((2R,4S)-4-((2,3-Dihydrobenzo[b][1,4]dioxin-6-yl-2,2,3,3-d4)oxy)-2-methylpiperidin-1-yl)-8-methyl-4H-pyrimido[1,2-b]pyridazin-4-one] | 120% | 0.081 µM |  |
| [2H]C1([2H])Oc2cc(O[C@H]3CCN(c4nn5c(=O)ccnc5cc4C)[C@H](C)C3)cc(F)c2OC1([2H])[2H] [Compound 130, 7-((2R,4S)-4-((8-fluoro-2,3-dihydrobenzo[b][1,4]dioxin-6-yl-2,2,3,3-d4)oxy)-2-methylpiperidin-1-yl)-8-methyl-4H-pyrimido[1,2-b]pyridazin-4-one] | 116% | 0.16 µM |  |
| Cc1cc2nccc(=O)n2nc1N1CC[C@H](Oc2cc(F)c3c(c2)OCCO3)C[C@H]1C [Compound 131, 7-((2R,4S)-4-((8-fluoro-2,3-dihydrobenzo[b][1,4]dioxin-6-yl)oxy)-2-methylpiperidin-1-yl)-8-methyl-4H-pyrimido[1,2-b]pyridazin-4-one] | 119% | 0.203 µM |  |
| [2H]C1([2H])Oc2ccc(O[C@H]3CCN(c4nn5c(=O)ccnc5c(C)c4C)[C@H](C)C3)cc2OC1([2H])[2H] [Compound 132, 7-((2R,4S)-4-((2,3-dihydrobenzo[b][1,4]dioxin-6-yl-2,2,3,3-d4)oxy)-2-methylpiperidin-1-yl)-8,9-dimethyl-4H-pyrimido[1,2-b]pyridazin-4-one] | 107% | 0.034 µM |  |
| [2H]C1([2H])Oc2ccc(O[C@H]3CCN(c4nn5c(=O)cc(COC)nc5c(C)c4C)[C@H](C)C3)cc2OC1([2H])[2H] [Compound 133, 7-((2R,4S)-4-((2,3-dihydrobenzo[b][1,4]dioxin-6-yl-2,2,3,3-d4)oxy)-2-methylpiperidin-1-yl)-2-(methoxymethyl)-8,9-dimethyl-4H-pyrimido[1,2-b]pyridazin-4-one] | 105% | 0.096 µM |  |
| Cc1c(N2CC[C@H](Oc3ccc4c(c3)OCCO4)C[C@H]2C)nn2c(=O)ccnc2c1C [Compound 134, 7-((2R,4S)-4-((2,3-dihydrobenzo[b][1,4]dioxin-6-yl)oxy)-2-methylpiperidin-1-yl)-8,9-dimethyl-4H-pyrimido[1,2-b]pyridazin-4-one] | 105% | 0.025 µM |  |

Reference: US11884676B2, “Substituted pyrimido[1,2-b]pyridazines as positive allosteric modulators of the muscarinic acetylcholine receptor M4” (Vanderbilt University, priority 2020, dated 2024)
